# In patent publication US10022447B2, “Solid pharmaceutical compositions containing pregabalin” (Warner-Lambert Company LLC, priority 2005, dated 2018):
# Test: Clinical studies of regional GI absorption of pregabalin
# Assay type: in vivo
# Conditions: humans
# Description: Once daily dosing of pregabalin, however, presents numerous challenges. Conventional extended release (ER) compositions are problematic for QD dosing because pregabalin is not absorbed uniformly in the gastrointestinal (GI) tract. […] Furthermore, pregabalin is a γ-amino acid which under normal storage conditions may undergo intramolecular cyclization to form a lactam, 4-isobutyl-pyrrolidin-2-one. See, e.g., WO 99/10186 and WO 99/59573, both to A. Aomatsu. Although it is known that the non-active components of the pharmaceutical composition may affect lactam formation, it is difficult to predict which excipients may lead to undesirable lactam formation.
smiles,measurement,value
"CC(C)C[C@H](CN)CC(=O)O [pregabalin, (S)-(+)-3-aminomethyl-5-methyl-hexanoic acid]",mean absorption window,about six hours or less
same,regional absorption in the GI tract,poorly absorbed beyond the hepatic flexure
